Assay results from paper PMC6001238, “Iterative Chemical Engineering of Vancomycin Leads to Novel Vancomycin Analogs With a High in Vitro Therapeutic Index” (Frontiers in Microbiology, 2018).
In brackets after ≈: the same amount, converted by molar mass.

Assays:
[1] = tested on: E. faecalis VSE 1; experiment: MIC, broth microdilution, vancomycin-sensitive E. faecalis (VSE 1); format: cell-based, Enterococcus faecalis; details: for MIC: Enterococcus faecalis VSE 1 (vancomycin-sensitive), read-out: MIC; for MIC-fold improvement vs. vancomycin: VSE 1, ratio of MIC of vancomycin and MIC of analogue
Method: (§1) The minimum inhibitory concentration (MIC) was determined using the broth microdilution method according to the antimicrobial susceptibility testing standards of the clinical and laboratory standards institute ([Clinical and Laboratory Standards Institute [CLSI], 2012]). Ultrapure water and non-inoculated broth were used as controls. In one case, a final concentration of 10 μM vancomycin was included with the vancomycin analog or control antibiotic.

[2] = tested on: E. faecalis VRE 6; experiment: MIC, broth microdilution, vancomycin-resistant E. faecalis VRE 6 (VanA); format: cell-based, Enterococcus faecalis; details: for MIC: Enterococcus faecalis VRE 6 (vancomycin-resistant), read-out: MIC; for MIC-fold improvement vs. vancomycin: VRE 6, ratio of MIC of vancomycin and MIC of analogue
Method: as §1

[3] = tested on: E. faecalis VRE 53; experiment: MIC, broth microdilution, vancomycin-resistant E. faecalis VRE 53 (VanA); format: cell-based, Enterococcus faecalis; details: for MIC: Enterococcus faecalis VRE 53 (vancomycin-resistant), read-out: MIC; for MIC-fold improvement vs. vancomycin: VRE 53, ratio of MIC of vancomycin and MIC of analogue
Method: as §1

[4] = tested on: E. faecalis VRE 29; experiment: MIC, broth microdilution, vancomycin-resistant E. faecalis VRE 29 (VanA); format: cell-based, Enterococcus faecalis; details: for MIC: Enterococcus faecalis VRE 29 (vancomycin-resistant), read-out: MIC; for MIC-fold improvement vs. vancomycin: VRE 29, ratio of MIC of vancomycin and MIC of analogue
Method: as §1

[5] = tested on: E. faecalis VRE 37; experiment: MIC, broth microdilution, vancomycin-resistant E. faecalis VRE 37 (VanA); format: cell-based, Enterococcus faecalis; details: for MIC: Enterococcus faecalis VRE 37 (vancomycin-resistant), read-out: MIC; for MIC-fold improvement vs. vancomycin: VRE 37, ratio of MIC of vancomycin and MIC of analogue
Method: as §1

[6] = tested on: Murine leukemia (L1210) cells; experiment: Cytostatic activity, L1210 cell proliferation; format: cell-based; details: mean ± SD of three experiments; highest concentration tested 250 µM; 2 days; read-out: Toxicity (IC50) L1210
Method: (§2) Murine leukemia (L1210), human T-lymphocyte (CEM) and the human cervix carcinoma (HeLa) cell line were suspended at 300,000–500,000 cells/mL of culture medium, and 100 μL of a cell suspension was added to 100 μL of an appropriate dilution of the test compounds in wells of 96-well microtiter plates. After incubation at 37°C for 2 (L1210), 3 (CEM), or 4 (HeLa) days, the cell number was determined using a Coulter counter. The IC50 was defined per cell type as the compound concentration required to inhibit cell proliferation by 50% compared to the negative control ([Glowacka et al., 2017]).

[7] = tested on: human T-lymphocyte (CEM) cells; experiment: Cytostatic activity, CEM cell proliferation; format: cell-based; details: mean ± SD of three experiments; highest concentration tested 250 µM; 3 days; read-out: Toxicity (IC50) CEM
Method: as §2

[8] = tested on: human cervix carcinoma (HeLa) cells; experiment: Cytostatic activity, HeLa cell proliferation; format: cell-based; details: mean ± SD of three experiments; highest concentration tested 250 µM; 4 days; read-out: Toxicity (IC50) HeLa
Method: as §2

[9] = tested on: L1210, CEM and HeLa cell lines; experiment: Cytostatic activity, average or summary over L1210, CEM and HeLa; format: cell-based; details: average of L1210, CEM and HeLa; read-out: Toxicity (IC50) Average
Method: as §2

[10] = tested on: S. aureus VSSA (ATCC 6538); experiment: MIC, broth microdilution, vancomycin-sensitive S. aureus (VSSA/MSSA, ATCC 6538); format: cell-based, Staphylococcus aureus; details: for MIC: Staphylococcus aureus VSSA, read-out: MIC; for MIC-fold improvement vs. vancomycin: VSSA, ratio of MIC of vancomycin and MIC of analogue
Method: as §1

[11] = tested on: S. aureus VISA/HIP5827; experiment: MIC, broth microdilution, vancomycin-intermediate S. aureus VISA HIP5827; format: cell-based, Staphylococcus aureus; details: for MIC: Staphylococcus aureus VISA/HIP5827, read-out: MIC; for MIC-fold improvement vs. vancomycin: VISA/HIP5827, ratio of MIC of vancomycin and MIC of analogue
Method: as §1

[12] = tested on: S. aureus VRSA; experiment: MIC, broth microdilution, vancomycin-resistant S. aureus (VRSA); format: cell-based, Staphylococcus aureus; details: for MIC: Staphylococcus aureus VRSA, read-out: MIC; for MIC-fold improvement vs. vancomycin: VRSA, ratio of MIC of vancomycin and MIC of analogue
Method: as §1

[13] = tested on: MRSA KS2; experiment: MIC, broth microdilution, MRSA KS2; format: cell-based, Staphylococcus aureus; details: for MIC-fold improvement vs. vancomycin: MRSA KS2, ratio of MIC of vancomycin and MIC of analogue; for MIC: Staphylococcus aureus MRSA KS2, read-out: MIC
Method: as §1

[14] = tested on: MRSA KS6; experiment: MIC, broth microdilution, MRSA KS6; format: cell-based, Staphylococcus aureus; details: for MIC-fold improvement vs. vancomycin: MRSA KS6, ratio of MIC of vancomycin and MIC of analogue; for MIC: Staphylococcus aureus MRSA KS6, read-out: MIC
Method: as §1

[15] = tested on: MRSA KS89; experiment: MIC, broth microdilution, MRSA KS89; format: cell-based, Staphylococcus aureus; details: for MIC-fold improvement vs. vancomycin: MRSA KS8, ratio of MIC of vancomycin and MIC of analogue; for MIC: Staphylococcus aureus MRSA KS8, read-out: MIC
Method: as §1

[16] = tested on: MRSA KS1; experiment: MIC, broth microdilution, MRSA KS1; format: cell-based, Staphylococcus aureus; details: for MIC-fold improvement vs. vancomycin: MRSA KS1, ratio of MIC of vancomycin and MIC of analogue; for MIC: Staphylococcus aureus MRSA KS1, read-out: MIC
Method: as §1

MIC [1] [µM] | MIC-fold improvement vs. vancomycin [1] | MIC [2] [µM] | MIC-fold improvement vs. vancomycin [2] | MIC [3] [µM] | MIC [4] [µM] | MIC [5] [µM] | MIC [10] [µM] | MIC-fold improvement vs. vancomycin [10] | MIC [11] [µM] | MIC-fold improvement vs. vancomycin [11] | MIC [12] [µM] | MIC-fold improvement vs. vancomycin [12] | MIC-fold improvement vs. vancomycin [13] | MIC [13] [µM] | MIC-fold improvement vs. vancomycin [14] | Compound | IC50 [6] [µM] | IC50 [7] [µM] | IC50 [8] [µM] | IC50 [9] [µM] | also measured
0.78 (≈ 1.23 µg/mL) | 2 | 12.5 (≈ 19.8 µg/mL) | 16 | 25 (≈ 39.5 µg/mL) | 25 (≈ 39.5 µg/mL) | 25 (≈ 39.5 µg/mL) | 0.78 (≈ 1.23 µg/mL) | 1 | 0.78 (≈ 1.23 µg/mL) | 8 | 25 (≈ 39.5 µg/mL) | 4 | 1 | 0.78 (≈ 1.23 µg/mL) | 1 | CN[C@H](CC(C)C)C(=O)N[C@H]1C(=O)N[C@@H](CC(N)=O)C(=O)N[C@H]2C(=O)N[C@H]3C(=O)N[C@H](C(=O)N[C@H](C(=O)NCC(=O)Nc4ccccc4)c4cc(O)cc(O)c4-c4cc3ccc4O)[C@H](O)c3ccc(c(Cl)c3)Oc3cc2cc(c3O[C@@H]2O[C@H](CO)[C@@H](O)[C@H](O)[C@H]2O[C@H]2C[C@](C)(N)[C@H](O)[C@H](C)O2)Oc2ccc(cc2Cl)[C@H]1O [Vanc-3] | > 250 | > 250 | > 250 | > 250 | MIC-fold improvement vs. vancomycin [3]: 16; MIC-fold improvement vs. vancomycin [4]: 16; MIC [14]: 0.78 µM (≈ 1.23 µg/mL); MIC-fold improvement vs. vancomycin [15]: 1; MIC [15]: 0.78 µM (≈ 1.23 µg/mL); MIC-fold improvement vs. vancomycin [16]: 1; MIC [16]: 0.78 µM (≈ 1.23 µg/mL)
0.78 (≈ 1.26 µg/mL) | 2 | 6.25 (≈ 10.1 µg/mL) | 32 | 12.5 (≈ 20.1 µg/mL) | 12.5 (≈ 20.1 µg/mL) | 12.5 (≈ 20.1 µg/mL) | 0.39 (≈ 0.628 µg/mL) | 2 | 0.39 (≈ 0.628 µg/mL) | 16 | 12.5 (≈ 20.1 µg/mL) | 8 | 2 | 0.39 (≈ 0.628 µg/mL) | 1 | CN[C@H](CC(C)C)C(=O)N[C@H]1C(=O)N[C@@H](CC(N)=O)C(=O)N[C@H]2C(=O)N[C@H]3C(=O)N[C@H](C(=O)N[C@H](C(=O)NCC(=O)Nc4ccc(OC)cc4)c4cc(O)cc(O)c4-c4cc3ccc4O)[C@H](O)c3ccc(c(Cl)c3)Oc3cc2cc(c3O[C@@H]2O[C@H](CO)[C@@H](O)[C@H](O)[C@H]2O[C@H]2C[C@](C)(N)[C@H](O)[C@H](C)O2)Oc2ccc(cc2Cl)[C@H]1O [Vanc-5] | > 250 | > 250 | > 250 | > 250 | MIC-fold improvement vs. vancomycin [3]: 32; MIC-fold improvement vs. vancomycin [4]: 32; MIC-fold improvement vs. vancomycin [5]: 64; MIC [14]: 0.78 µM (≈ 1.26 µg/mL); MIC-fold improvement vs. vancomycin [15]: 1; MIC [15]: 0.78 µM (≈ 1.26 µg/mL); MIC-fold improvement vs. vancomycin [16]: 1; MIC [16]: 0.78 µM (≈ 1.26 µg/mL)
0.39 (≈ 0.63 µg/mL) | 4 | 3.13 (≈ 5.06 µg/mL) | 64 | 12.5 (≈ 20.2 µg/mL) | 6.25 (≈ 10.1 µg/mL) | 12.5 (≈ 20.2 µg/mL) | 0.39 (≈ 0.63 µg/mL) | 2 | 0.39 (≈ 0.63 µg/mL) | 16 | 3.13 (≈ 5.06 µg/mL) | 32 | 2 | 0.39 (≈ 0.63 µg/mL) | 2 | CN[C@H](CC(C)C)C(=O)N[C@H]1C(=O)N[C@@H](CC(N)=O)C(=O)N[C@H]2C(=O)N[C@H]3C(=O)N[C@H](C(=O)N[C@H](C(=O)NCC(=O)Nc4ccc(Cl)cc4)c4cc(O)cc(O)c4-c4cc3ccc4O)[C@H](O)c3ccc(c(Cl)c3)Oc3cc2cc(c3O[C@@H]2O[C@H](CO)[C@@H](O)[C@H](O)[C@H]2O[C@H]2C[C@](C)(N)[C@H](O)[C@H](C)O2)Oc2ccc(cc2Cl)[C@H]1O [Vanc-6] | > 250 | 159 ± 13 | 91 ± 33 | 167 | MIC-fold improvement vs. vancomycin [5]: 64; MIC [14]: 0.39 µM (≈ 0.63 µg/mL); MIC-fold improvement vs. vancomycin [15]: 2; MIC [15]: 0.39 µM (≈ 0.63 µg/mL); MIC-fold improvement vs. vancomycin [16]: 2; MIC [16]: 0.39 µM (≈ 0.63 µg/mL)
